Experimental data as given in US9056833B2, “Crystalline phases of 2′-{[2-(4-methoxy-phenyl)-acetylamino]-methyl}-biphenyl-2-carboxylic acid (2-pyridin-3-yl-ethyl)-amide” (SANOFI-AVENTIS DEUTSCHLAND GMBH, priority 2009, dated 2015).

Key:
Format in all cases: physicochemical
[1] = Thermodynamic stability of the polymorphs as a function of temperature
[2] = Dynamic vapor sorption (DVS), moisture sorption/desorption isotherms; settings: 25° C.
Description: Moisture sorption/desorption isotherms were recorded on a DVS-1from Surface Measurement Systems. […] The data were evaluated with the software DVSWin V. 2.15With samples of phase 1, 2, 3and 4of compound I the following water uptake (in mass percent) as a function of the relative humidity was determined.

[3] = Temperature-resolved X-ray powder diffraction, DSC and TGA of toluene solvate; settings: on loss of solvent
Description: All X-ray powder diffraction was performed with Stoe Stadi-P transmission diffractometers using CuKα1radiation. For room temperature powder diffraction, linear position sensitive detectors were used, while for temperature-resolved XRPD image plate position sensitive detectors (IP-PSDs) were used. Unless stated otherwise, X-ray powder diffraction was performed at room temperature. Dry samples were investigated in a flat preparation whereas suspensions were investigated in quartz glass capillaries. […] The 2θ (2theta) angles in ° (degree) and the relative intensities of characteristic reflections are specified above, wherein the relative intensity of a reflection is designated as “strong” if it is more than 75% of the intensity of the most intense reflection or it is the most intense reflection itself, and as “medium” if it is between 20% and 75% of the intensity of the most intense reflection.
All DSC measurements were performed with a Mettler DSC822e (module DSC822e/700/109/414935/0025). If not indicated differently, 40μl Al crucibles with sealed lid and hole were used. All measurements were carried out in a nitrogen gas flow of 50mL/minute. The heating rate was 10° C./minute unless indicated otherwise. Temperature and heat flow were calibrated via the melting peak of an indium reference. The measured data were evaluated with the software STARe V6.1.

[4] = Solubility compared to other polymorphs
[5] = Maturation experiments (slurry conversion), relative stability of the polymorphs; settings: investigated temperature range 0° C. to 80° C.
Description: By maturation experiments (slurry conversion) in the temperature region from 0° C. to 80° C. the relative stability of the polymorphs of compound I was investigated.
Maturation experiments (a) to (d) were performed under the specified conditions, starting from a 1:1mixture of polymorphs 1and 4. • (a) The phase mixture was suspended in ethanol. After stirring the suspension for two days at 60° C., the solid was quickly isolated by vacuum filtration. • (b) The phase mixture was suspended in butyl acetate. After stirring the suspension for two days at 60° C., the solid was quickly isolated by vacuum filtration. • (c) The phase mixture was suspended in 1-pentanol. After stirring the suspension for four hours at 80° C., the solid was quickly isolated by vacuum filtration. • (d) The phase mixture was suspended in 1-octanol. After stirring the suspension for four hours at 80° C., the solid was quickly isolated by vacuum filtration.
Maturation experiments (e) to (p) were performed by stirring the suspension under the specified conditions and isolating the solid by vacuum filtration, starting from polymorph 4. • (e) Maturation of 0.208g of compound I in 1.3ml of water/methanol (1:1) was performed at room temperature for four weeks. […]

[6] = Stability of chloroform solvate outside the mother liquor

COc1ccc(CC(=O)NCc2ccccc2-c2ccccc2C(=O)NCCc2cccnc2)cc1 [Polymorph 4, 2′-{[2-(4-methoxy-phenyl)-acetylamino]-methyl}-biphenyl-2-carboxylic acid (2-pyridin-3-yl-ethyl)-amide]
temperature range in which the polymorph is thermodynamically stable [1]: around 90 °C
water uptake (in mass percent) ([2]; relative humidity 20%, listed as Phase 4): 0.05%
water uptake (in mass percent) ([2]; relative humidity 40%, listed as Phase 4): 0.02%
water uptake (in mass percent) ([2]; relative humidity 60%, listed as Phase 4): 0.15%
water uptake (in mass percent) ([2]; relative humidity 80%, listed as Phase 4): 1.80%

COc1ccc(CC(=O)NCc2ccccc2-c2ccccc2C(=O)NCCc2cccnc2)cc1 [toluene solvate, 2′-{[2-(4-methoxy-phenyl)-acetylamino]-methyl}-biphenyl-2-carboxylic acid (2-pyridin-3-yl-ethyl)-amide]
form obtained on transformation [3]: transforms to polymorph 4

COc1ccc(CC(=O)NCc2ccccc2-c2ccccc2C(=O)NCCc2cccnc2)cc1 [Polymorph 2, 2′-{[2-(4-methoxy-phenyl)-acetylamino]-methyl}-biphenyl-2-carboxylic acid (2-pyridin-3-yl-ethyl)-amide]
thermodynamic stability (in words) [1]: metastable at any temperature
solubility compared to other polymorphs [4]: higher solubility
water uptake (in mass percent) ([2]; relative humidity 20%, listed as Phase 2): 0.04%
water uptake (in mass percent) ([2]; relative humidity 40%, listed as Phase 2): 0.05%
water uptake (in mass percent) ([2]; relative humidity 60%, listed as Phase 2): 0.09%
water uptake (in mass percent) ([2]; relative humidity 80%, listed as Phase 2): 1.79%

COc1ccc(CC(=O)NCc2ccccc2-c2ccccc2C(=O)NCCc2cccnc2)cc1 [Polymorph 3, 2′-{[2-(4-methoxy-phenyl)-acetylamino]-methyl}-biphenyl-2-carboxylic acid (2-pyridin-3-yl-ethyl)-amide]
thermodynamic stability (in words) [1]: only metastable below 90 °C
water uptake (in mass percent) ([2]; relative humidity 20%, listed as Phase 3): 0.02%
water uptake (in mass percent) ([2]; relative humidity 40%, listed as Phase 3): 0.03%
water uptake (in mass percent) ([2]; relative humidity 60%, listed as Phase 3): 0.06%
water uptake (in mass percent) ([2]; relative humidity 80%, listed as Phase 3): 0.30%

COc1ccc(CC(=O)NCc2ccccc2-c2ccccc2C(=O)NCCc2cccnc2)cc1 [Polymorph 1, 2′-{[2-(4-methoxy-phenyl)-acetylamino]-methyl}-biphenyl-2-carboxylic acid (2-pyridin-3-yl-ethyl)-amide]
temperature range in which the polymorph is thermodynamically stable [1]: below 90 °C
relative thermodynamic stability among the known polymorphs [5]: thermodynamically most stable
water uptake (in mass percent) ([2]; relative humidity 20%, listed as Phase 1): 0.00%
water uptake (in mass percent) ([2]; relative humidity 40%, listed as Phase 1): 0.01%
water uptake (in mass percent) ([2]; relative humidity 60%, listed as Phase 1): 0.01%
water uptake (in mass percent) ([2]; relative humidity 80%, listed as Phase 1): 1.36%

COc1ccc(CC(=O)NCc2ccccc2-c2ccccc2C(=O)NCCc2cccnc2)cc1 [chloroform solvate, 2′-{[2-(4-methoxy-phenyl)-acetylamino]-methyl}-biphenyl-2-carboxylic acid (2-pyridin-3-yl-ethyl)-amide]
stability outside the mother liquor [6]: only moderately stable
form obtained on transformation ([6]; outside the mother liquor): starts to transform to polymorph 2
